Reference: patent US20040175813A1, “Mutant P53 proteins and uses thereof” (priority 2002, published 2004)

Tested on: MCF-7 c-Jun over-expressing cells
Assay: Sensitivity of c-Jun over-expressing cells to apoptotic inducing agents, DNA fragmentation
Format: cell-based, human
Details: for DNA fragmentation in cells cultured with the agent: FIG. 4A; for Sensitivity of c-Jun over-expressing cells to the apoptotic inducing agent: compared to vector control, FIG. 3
Text: Human MCF-7 cells were stably transfected with wild type transcription factor c-jun and expressed high levels of c-Jun protein. The c-Jun over-expressing MCF-7 cells were obtained from Drs. Michael Birrer (National Institutes of Health, National Cancer Institute, Rockville, Md.) and Paul Brown (Baylor College of Medicine, Houston, Texas). A description of the c-Jun over-expressing MCF-7 cells can be found in Yang et al. (1997) and Smith et al. (1999).
Bax levels were not altered (FIG. 2A).

Molecule	DNA fragmentation in cells cultured with the agent	Sensitivity of c-Jun over-expressing cells to the apoptotic inducing agent
ceramide	high degree of DNA fragmentation	highly sensitive
Cc1c(C)c2c(c(C)c1OC(=O)CCC(=O)O)CC[C@@](C)(CCC[C@H](C)CCC[C@H](C)CCCC(C)C)O2 [vitamin E succinate (VES), vitamin E succinate]	high degree of DNA fragmentation	highly sensitive
CC1=C(/C=C/C(C)=C/C=C/C(C)=C/C(=O)Nc2ccc(O)cc2)C(C)(C)CCC1 [N-(4-hydroxyphenyl) retinamide (4-HPR), N-(4-hydroxyphenyl) retinamide]	high degree of DNA fragmentation	highly sensitive
